Experimental data: patent publication US20120165319A1, “INHIBITORS OF INTERLEUKIN-1 BETA CONVERTING ENZYME” (VERTEX PHARMACEUTICALS INCORPORATED, priority 1995, published 2012)
Read-outs that look alike come from different tables or passages of the source. Values belong to the molecule of their own block, whether it stands above or below them.

Legend:
[1] = Pharmacokinetic studies in the mouse (i.v. clearance, plasma levels); assay type: in vivo; conditions: mouse; for clearance: CD-1, plasma, iv
Protocol: Pharmacokinetic Studies in the Mouse
Sample Preparation and Dosing
Compounds were dissolved in sterile TRIS solution (0.02M or 0.05M) at a concentration of 2.5 mg/ml. Where necessary to ensure a complete solution, the sample was first dissolved in a minimum of dimethylacetamide (maximum of 5% of total solution volume) then diluted with the TRIS solution.
The drug solution was administered to CD-1 mice (Charles River Laboratories—26-31 g) via the tail vein at a dose volume of 10 ml/kg giving a drug dose of 25 mg/kg.
Mice were dosed in groups of 5 for each timepoint (generally from 2 minutes to 2 hours) then at the appropriate time the animals were anaesthetised with halothane and the blood collected into individual heparinized tubes by jugular severance. The blood samples were cooled to 0° C. then the plasma separated and stored at −20° C. until assayed.
Drug concentration in the plasma samples were determined by HPLC analysis with UV or MS (ESP) detection. Reverse phase chromatography was employed using a variety of bonded phases from C1 to C18 with eluents composed of aqueous buffer/acetonitrile mixtures run under isocratic conditions.
Quantitation was by external standard methods with calibration curves constructed by spiking plasma with drug solutions to give concentrations in the range of 0.5 to 50 μg/ml.
Prior to analysis the plasma samples were deproteinated by the addition of acetonitrile, methanol, trichloroacetic acid or perchloric acid followed by centrifugation at 10,000 g for 10 minutes. Sample volumes of 20 μl to 50 μl were injected for analysis.
The drug was dissolved in sterile 0.02M Tris to give a 2.5 mg/ml solution which was administered to […] of 5 male CD-1 mice via the tail vein at a dose of 25 mg/kg. At each of the following timepoints: 2, 5, 10, 15, 20, 30, 45, 60, 90 and 120 minutes a group of animals was anaesthetised and the blood collected into heparinized tubes. After separation the plasma was stored at −20° C. until assayed.
Aliquots of plasma (150 μl) were treated with 5% perchloric acid (5 μl) then mixed by vortexing and allowed to stand for 90 minutes prior to centrifugation. The resulting supernatant was separated and 20 μl was injected for HPLC analysis.
Aliquots of plasma (100 μl) were diluted with acetonitrile (100 μl) then mixed by vortexing for 20 seconds before centrifugation for 10 minutes. The resulting supernatant was separated and 20 μl was injected for HPLC analysis.

[2] = test system: IL-1β production, LPS-challenged mice; assay: In vivo acute assay for efficacy as anti-inflammatory agent: LPS-induced IL-1β production in mice; parameters: species or system mouse; conditions: LPS challenged mice, 50 mg/kg; for Inhibition of IL-1β Production, compound administered 0 hr relative to LPS challenge / Inhibition of IL-1β Production, compound administered +1 hr relative to LPS challenge / Inhibition of IL-1β Production, compound administered −1 hr relative to LPS challenge / Inhibition of IL-1β Production, compound administered −2 hr relative to LPS challenge: PO, * = values obtained in subsequent assays (Table 4); for inhibition at 50 mg/kg: Mus musculus, po, compound PO, read-out: percent inhibition of IL-1β production
Outline: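 CD1 mice (n=6) were challenged with LPS 20 mg/kg IP and given compound IP in olive oil:DMSO:ethanol (90:5:5) 1 h after LPS, or at the time of challenge for some analogs. Blood was taken 7 h after LPS and serum IL-1β was measured by ELISA. Oral gavage at 50 mg/kg was also tested.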

Molecule: O=C(O)C[C@H](NC(=O)[C@@H]1CCCN2C(=O)CC[C@H](NC(=O)CCc3ccccc3)C(=O)N12)C(=O)COC(=O)c1c(Cl)cccc1Cl [Compound 136]
clearance ([1]; 25 mg/kg): 93 mL/min/kg

Molecule: CC(=O)N[C@H]1CCC(=O)N2CCC[C@@H](C(=O)N[C@@H](CC(=O)O)C(=O)COC(=O)c3c(Cl)cccc3Cl)N2C1=O [Compound 217c, [3S(1S,9S)]3-(9-Acetylamino-6,10-dioxo-1,2,3,4,7,8,9,10-octahydro-6H-pyridazino-[1,2-a][1,2]diazepine-1-carboxamido)-5-(2,6-dichlorobenzoyloxy)-4-oxopentanoic acid]
clearance ([1]; 25 mg/kg): 70 mL/min/kg

Molecule: O=C1C[C@H](NC(=O)[C@@H]2CCCN3C(=O)CC[C@H](NC(=O)c4ccccc4)C(=O)N23)C(OCc2ccccc2)O1 (stereo partly drawn) [Compound 213e, [1S,9S(2RS,3S)]9-Benzoylamino-6,10-dioxo-1,2,3,4,7,8,9,10-octahydro-N-(2-benzyloxy-5-oxotetrahydrofuran-3-yl)-6H-pyridazino[1,2-a][1,2]-diazepine-1-carboxamide]
Inhibition of IL-1β Production, compound administered 0 hr relative to LPS challenge [2]: 41% | Inhibition of IL-1β Production, compound administered +1 hr relative to LPS challenge [2]: 89% | Inhibition of IL-1β Production, compound administered −1 hr relative to LPS challenge [2]: 48% | Inhibition of IL-1β Production, compound administered −2 hr relative to LPS challenge [2]: 0%

Molecule: O=C1C[C@H](NC(=O)[C@@H]2CCCN3C(=O)CC[C@H](NC(=O)c4ccccc4)C(=O)N23)C(OCCc2ccccc2)O1 (mixture of isomers) [Compound 2100k, [1S,9S(2RS,3S)]9-Benzoylamino-6,10-dioxo-1,2,3,4,7,8,9,10-octahydro-N-(2-phenethyloxy-5-oxotetrahydrofuran-3-yl)-6H-pyridazino[1,2-a][1,2]diazepine-1-carboxamide]
inhibition at 50 mg/kg ([2]; 0 h, administered 0 h relative to time of LPS challenge): 32% | inhibition at 50 mg/kg ([2]; 1 h, administered +1 h relative to time of LPS challenge): 72% | inhibition at 50 mg/kg ([2]; 1 h, administered −1 h relative to time of LPS challenge): 50% | inhibition at 50 mg/kg ([2]; 2 h, administered −2 h relative to time of LPS challenge): 30%

Molecule: CC(C)OC(=O)C[C@H](NC(=O)[C@@H]1CCCN2C(=O)CC[C@H](NC(=O)c3ccccc3)C(=O)N12)C(OC(C)C)OC(C)C [Compound 2100d]
Inhibition of IL-1β Production, compound administered 0 hr relative to LPS challenge [2]: 52% | Inhibition of IL-1β Production, compound administered +1 hr relative to LPS challenge [2]: 26% | Inhibition of IL-1β Production, compound administered −1 hr relative to LPS challenge [2]: 35% | Inhibition of IL-1β Production, compound administered −2 hr relative to LPS challenge [2]: 42%

Molecule: [3S(1S,9S)]3-[(6,10-Dioxo-9-(methanesulphonylamino)-1,2,3,4,7,8,9,10-octahydro-6H-pyridazino[1,2-a][1,2]diazepine-1-carboxamido]-5-(5-methyl-3-phenylisoxazoyloxy)-4-oxopentanoic acid [505 b]
Clearance Mouse, i.v. ([1]; Table 18): 161 mL/min/kg

The next lines start with the values.

Clearance Mouse, i.v. ([1]; 25 mg/kg): 67 mL/min/kg
Molecule: O=C(O)CC(NC(=O)[C@@H]1CCCN2C(=O)CC[C@H](NC(=O)c3ccccc3)C(=O)N12)C(=O)CF (stereo partly drawn) [Compound 230e, [3RS,(1S,9S)]3-(9-Benzoylamino-6,10-dioxo-1,2,3,4,7,8,9,10-octahydro-6H-pyridazino[1,2-a][1,2]-diazepine-1-carboxamido)-5-fluoro-4-oxopentanoic acid]

clearance ([1]; 25 mg/kg): 28 mL/min/kg
Molecule: CC(=O)N1C[C@H](NC(=O)c2ccc3ccccc3c2)C(=O)N(CC(=O)N[C@H](C=O)CC(=O)O)c2ccccc21 [Compound 605n]

clearance ([1]; 25 mg/kg): 22 mL/min/kg
Molecule: N#C[C@H](CC(=O)O)NC(=O)[C@@H]1CCCN2C(=O)CC[C@H](NC(=O)c3ccccc3)C(=O)N12 [Compound 232e, [3S(1S,9S)]9-(Benzoylamino)-3-[6,10-dioxo-1,2,3,4,7,8,9,10-octahydro-6H-pyridazino-[1,2-a][1,2]diazepine-1-carboxamido]-3-cyanopropanoic acid]

clearance ([1]; 25 mg/kg): 77 mL/min/kg
Molecule: COC(=O)N[C@H]1CCC(=O)N2CCC[C@@H](C(=O)N[C@@H](CC(=O)O)C(=O)COC(=O)c3c(Cl)cccc3Cl)N2C1=O [Compound 284, [3S(1S,9S)]5-(2,6-Dichlorobenzoyloxy)-3-[6,10-dioxo-9-(methoxycarbonyl)amino-1,2,3,4,7,8,9,10-octahydro-6H-pyridazino[1,2-a][1,2]diazepine-1-carboxamido]-4-oxopentanoic acid]

clearance ([1]; 25 mg/kg): 32 mL/min/kg
Molecule: O=C[C@H](CC(=O)O)NC(=O)[C@@H]1CCCN2C(=O)CC[C@H](NC(=O)c3ccsc3)C(=O)N12 [Compound 410]
